Test results as given in US20240298636A1, “ANTIMICROBIAL AGENTS AND FILMS MADE THEREFROM” (YISSUM RESEARCH DEVELOPMENT COMPANY OF THE HEBREW …, priority 2021, published 2024).

Assay: QCM-D analysis of peptide adsorption and Cu binding
Assay type: physicochemical
Settings: for loaded mass/area of the peptide: 1.5 mg/mL in Tris buffer pH 8.5, after washing, Sauerbrey equation, 5th overtones
Experimental: Quartz Crystal Microbalance with Dissipation (QCM-D) Analysis: The peptides' adsorption and the metal-binding capabilities were studied using QCM-D (Q-sense, Biolin Scientific). The measurements were performed in a flow module E1 system with SiO2 sensors with a fundamental resonant frequency of 5 MHz (Qsense). The sensors were cleaned according to the supplier instructions. The experiments were performed under flow-through conditions using a digital peristaltic pump (IsmaTec Peristaltic Pump, IDEX). The peptide (1.5 mg/mL), control peptide (1.5 mg/mL), and CuCl2 (0.8 mg/mL) were dissolved in a filtered Tris buffer solution (pH=8.5, 10 mM). The solutions were injected circularly into the sensor crystal chamber at a rate of 0.1 mL/min. The peptide solution flowed for -4 h, the control peptide for −80 min, and the CuCl2 solution for -2 h. Between and after the coatings, the sensor was washed with the same Tris buffer solution. The adsorbed mass was calculated according to the Sauerbrey equation using the 5th overtones.

NH2-(Phe)2-(His)6-OH [reference compound]
loaded mass/area of the peptide: ~12 ng/cm^2

NH2-DOPA-(Phe)2-(His)6-OH [peptide]
loaded mass/area of the peptide: ~96 ng/cm^2
loaded mass/area of Cu bound to the peptide layer (Cu(II) solution (CuCl2 0.8 mg/mL) after washing with the buffer): ~9 ng/cm^2
ratio of Cu ions per each peptide molecule (from loaded mass/area values): ~2
